The values below come from PubChem BioAssay AID1195 (EPA DSSTox, 2008).

This data set relates to human maximum recommended daily dose, FDA database. In words: DSSTox (FDAMDD) FDA Maximum (Recommended) Daily Dose Database. Particulars: hits give low values. From the text:
The Food and Drug Administration (FDA) Center for Drug Evaluation and Research, Office of Pharmaceutical Science, Informatics and Computational Safety Analysis Staff's Maximum Recommended Daily Dose (FDAMDD) database contains values for over 1200 pharmaceuticals listed in Martindale: The Extra Pharmacopoeia (1973, 1983, and 1993) and The Physicians' Desk Reference (1995 and 1999). Some classes of chemicals were excluded from the FDAMDD database due to their unsuitability for most QSAR modeling programs. These were inorganic chemicals, high molecular weight polymers (>5000 Daltons), fibers, salts, mixtures of organic chemicals, and small molecules (<100 Daltons). FDAMDD is the non-proprietary portion of the database that was used in the QSAR analysis reported in the Main Citation. DSSTox FDAMDD has fewer substance records than the original MRDD Source database due to consolidation of partial structures (i.e., complexed entities) into a single record and elimination of duplicate entries. DSSTox FDAMDD also differs from the MRDD Source database in presenting complete structural information pertaining to the actual salt or complexed form corresponding to the listed ChemicalName and CASRN. According to the Source authors, there are a number of cases where multiple related forms or derivatives of a drug were listed as separate records but were assumed to fall under the same clinical toxicity assessment and, therefore, assigned the same Dose_MRDD_mg activity value. For the DSSTox FDAMDD, we have labeled these derivatives in the ChemClass_MRDD_grouping field and provide their counts in the ChemicalReplicateCount field to highlight their special nature.
Maximum recommended daily dose (or maximum recommended therapeutic dose) values were determined from pharmaceutical clinical trials that employed an oral route of exposure and daily treatments, usually for 3-12 months. Drugs were given as single or divided dose treatment regimens to achieve desired pharmacological effects. Roughly 5% of the pharmaceuticals in the FDAMDD data file were antineoplastics and anesthetics and were administered intravenously and/or intramuscularly. When separate MRDDs were reported for different routes of exposure, only the oral MRDD was included in the data file and only MRDD values reported for the average adult patient were used. Pharmaceuticals that are administered orally are usually tested over a limited range of doses and have MRDDs reported as mg/day. The mg/day unit was converted to mg/kg-body weight (bw)/day based upon an average adult weighing 60 kg. In contrast, the dose unit for most antineoplastic drug MRDDs is reported as mg/m2 which was converted to mg/kg-bw/day using the formula mg/kg-bw/day = mg/m2/37 for an average adult. Additionally, a few drugs had MRDDs reported in parts per million (ppm) which were converted to mg/kg-bw/day on the basis that 1000 ppm equals 25 mg/kg-bw/day for an average 60 kg adult. Activity Score is mapping of LOG10(1/Dose_MRDD_mmol) spanning activity range [MIN, MAX] onto Integer 1-100 Activity range, where 100 is highest potency and 1 is lowest potency: ActivityScore = 100 * INTEGER[(LOGINV_MRDD_mmol - MIN)/(MAX […] MIN)]. Activity Outcome is "active" for all substances, since Dose_MRDD_mmol is reported for all substances.

Setting [1] is: TherapeuticCategory: antihyperlipoproteinemic.
Setting [2] is: TherapeuticCategory: antineoplastic.
The mark [3] stands for this setting: TherapeuticCategory: antipsychotic.
The mark [4] stands for this setting: TherapeuticCategory: antibacterial.
Where [5] appears, read: TherapeuticCategory: antidiabetic.
Where [6] appears, read: TherapeuticCategory: anxiolytic.
[7] abbreviates: TherapeuticCategory: anti inflammatory.
[8] abbreviates: TherapeuticCategory: narcotic analgesic.
Where [9] appears, read: TherapeuticCategory: antihistaminic.

For `CC(=O)Oc1ccc(C(c2ccc(OC(C)=O)cc2)c2ccccn2)cc1`, the maximum recommended daily dose (mmol/kg-bw/day) (TherapeuticCategory: cathartic) was 0.000692.

As for `CNC(C)CC1CCCCC1` (stereo unspecified), the maximum recommended daily dose (mmol/kg-bw/day) (TherapeuticCategory: andrenergic, nasal decongestant) is 0.0161.

As to `C[N+](C)(C)C[C@H](O)CC(=O)[O-]`, under setting [1], the maximum recommended daily dose (mmol/kg-bw/day) was 0.307. For the molecule `N[C@@H](Cc1ccc(N(CCCl)CCCl)cc1)C(=O)O`, under setting [2], the maximum recommended daily dose (mmol/kg-bw/day) was 0.000328. As to `O=C(CCCN1CCC(n2c(=S)[nH]c3ccccc32)CC1)c1ccc(F)cc1`, under setting [3], the maximum recommended daily dose (mmol/kg-bw/day) is 0.000503. Consider `CC(C)(C)NC(=O)[C@@H]1CN(Cc2cccnc2)CCN1C[C@@H](O)C[C@@H](Cc1ccccc1)C(=O)N[C@H]1c2ccccc2C[C@H]1O`, for which the maximum recommended daily dose (mmol/kg-bw/day) (TherapeuticCategory: antiviral) is 0.0264.

As for `Cc1ccnc(NS(=O)(=O)c2ccc(N)cc2)n1`, the maximum recommended daily dose (mmol/kg-bw/day) under setting [4] is 0.252.

For `COCCOc1cnc(NS(=O)(=O)c2ccccc2)nc1`, under setting [5], the maximum recommended daily dose (mmol/kg-bw/day) was 0.108. As for `CCN(CC)CCSC(=O)C(c1ccccc1)c1ccccc1`, the maximum recommended daily dose (mmol/kg-bw/day) (TherapeuticCategory: anticholinergic, smooth muscle relaxant) was 0.0153. As to `CCCCN(CCCC)CCNc1nc(-c2ccccc2)no1`, for the setting “TherapeuticCategory: peripheral vasodilator”, the maximum recommended daily dose (mmol/kg-bw/day) is 0.0126.

With `O=C(O)c1cc(=O)c2c(OCC(O)COc3cccc4oc(C(=O)O)cc(=O)c34)cccc2o1`, under “TherapeuticCategory: prophylactic antiasthmatic, antiallergic”, the maximum recommended daily dose (mmol/kg-bw/day) was 0.0284. In the case of `COc1cccc(C(=O)CCN[C@@H](C)[C@H](O)c2ccccc2)c1`, for the setting “TherapeuticCategory: antianginal”, the maximum recommended daily dose (mmol/kg-bw/day) is 0.00255. On to `NS(=O)(=O)c1ccc(N2CCCCS2(=O)=O)cc1`, for which the maximum recommended daily dose (mmol/kg-bw/day) (TherapeuticCategory: anticonvulsant) is 0.0344. Take `OC[C@H]1O[C@H](O[C@H]2[C@H](O)[C@@H](O)[C@H](O)O[C@@H]2CO)[C@H](O)[C@@H](O)[C@@H]1O`: the maximum recommended daily dose (mmol/kg-bw/day) (TherapeuticCategory: none) was 0.292.

Turning to `CC1=C(C(=O)O)N2C(=O)[C@@H](NC(=O)[C@H](N)c3ccccc3)[C@H]2SC1`, under setting [4], the maximum recommended daily dose (mmol/kg-bw/day) is 0.192. Take `NC[C@H]1O[C@H](O[C@H]2[C@H](O)[C@@H](O)[C@H](N)C[C@@H]2N)[C@H](N)[C@@H](O)[C@@H]1O`: the maximum recommended daily dose (mmol/kg-bw/day) under setting [4] is 0.31. With `Cc1nnc2n1-c1ccc(Cl)cc1C(c1ccccc1)=NC2`, the maximum recommended daily dose (mmol/kg-bw/day) under setting [6] was 0.000541.

Consider `CCCc1nn(C)c2c(=O)[nH]c(-c3cc(S(=O)(=O)N4CCN(C)CC4)ccc3OCC)nc12`, for which, for the setting “TherapeuticCategory: erectile disfunction treatment”, the maximum recommended daily dose (mmol/kg-bw/day) was 0.00352. As for `O=C(O)Cc1sc(-c2ccccc2)nc1-c1ccc(Cl)cc1`, under setting [7], the maximum recommended daily dose (mmol/kg-bw/day) is 0.0455. In the case of `C[C@H]1O[C@@H](O[C@H]2[C@@H](O)C[C@H](O[C@H]3[C@@H](O)C[C@H](O[C@H]4CC[C@@]5(C)[C@H](CC[C@@H]6[C@@H]5CC[C@]5(C)[C@@H](C7=CC(=O)OC7)CC[C@]65O)C4)O[C@@H]3C)O[C@@H]2C)C[C@H](O)[C@@H]1O`, the maximum recommended daily dose (mmol/kg-bw/day) (TherapeuticCategory: cardiotonic) was 2.61e-08. With `CCCCOc1ccc(C[N+]2(C)[C@@H]3CC[C@H]2CC(OC(=O)[C@H](CO)c2ccccc2)C3)cc1` (stereo partly specified), under “TherapeuticCategory: antispasmotic, anticholinergic”, the maximum recommended daily dose (mmol/kg-bw/day) was 0.000915.

For the molecule `NCCCC(N)(C(=O)O)C(F)F` (stereo unspecified), the maximum recommended daily dose (mmol/kg-bw/day) (TherapeuticCategory: antineoplastic, antineumocystis, antiprotozoal) was 2.2. Regarding `N[C@@H](CC(=O)O)C(=O)O`, the maximum recommended daily dose (mmol/kg-bw/day) (TherapeuticCategory: roborant) is 0.751. Regarding `CCC(=O)O[C@H]1CC[C@H]2[C@@H]3CC[C@H]4CC(=O)[C@H](C)C[C@]4(C)[C@H]3CC[C@]12C`, the maximum recommended daily dose (mmol/kg-bw/day) under setting [2] is 0.00463. As to `CC[C@@H](CO)NC(=O)[C@@H]1C=C2c3cccc4[nH]cc(c34)C[C@H]2N(C)C1`, the maximum recommended daily dose (mmol/kg-bw/day) (TherapeuticCategory: oxytocic) is 3.92e-05. With `CCN(CC)CCc1nc(-c2ccccc2)no1`, the maximum recommended daily dose (mmol/kg-bw/day) under setting [7] is 0.0136. With `CCC(C)C1(CC)C(=O)NC(=O)NC1=O` (stereo unspecified), the maximum recommended daily dose (mmol/kg-bw/day) (TherapeuticCategory: sedative, hypnotic) is 0.00942. Consider `CN1C(=O)CN=C(c2ccccc2F)c2cc([N+](=O)[O-])ccc21`, for which the maximum recommended daily dose (mmol/kg-bw/day) (TherapeuticCategory: hypnotic) is 0.000106. As for `CS(=O)(=O)c1ccc([C@@H](O)[C@@H](CO)NC(=O)C(Cl)Cl)cc1`, under setting [4], the maximum recommended daily dose (mmol/kg-bw/day) is 0.14. Regarding `O=C1CN=C(c2ccccc2)c2cc(Cl)ccc2N1CC1CC1`, under setting [6], the maximum recommended daily dose (mmol/kg-bw/day) is 0.00308. For `CC(C)COC(=O)c1ccc(N)cc1`, the maximum recommended daily dose (mmol/kg-bw/day) (TherapeuticCategory: topical anesthetic) is 0.0345. Turning to `NC(=O)c1cc[n+](CC2=C(C(=O)[O-])N3C(=O)[C@@H](NC(=O)C(c4ccccc4)S(=O)(=O)O)[C@H]3SC2)cc1` (stereo partly specified), the maximum recommended daily dose (mmol/kg-bw/day) under setting [4] is 0.188. Take `CCC(=O)O[C@]1(c2ccccc2)CCN(C)C[C@@H]1C`: the maximum recommended daily dose (mmol/kg-bw/day) under setting [8] was 0.00191. As for `Cc1cn([C@H]2C[C@H](N=[N+]=[N-])[C@@H](CO)O2)c(=O)[nH]c1=O`, the maximum recommended daily dose (mmol/kg-bw/day) (TherapeuticCategory: antiviral) is 0.0374. On to `O=C1NC(=O)C(c2ccccc2)(c2ccccc2)N1`, for which the maximum recommended daily dose (mmol/kg-bw/day) (TherapeuticCategory: anticonvulsant, antiepileptic) is 0.0198. Turning to `CCC(c1ccc2cc(OC)ccc2c1)C(C)(C)C(=O)O` (stereo unspecified), the maximum recommended daily dose (mmol/kg-bw/day) (TherapeuticCategory: estrogen) was 0.000524. In the case of `Nc1nc(Cl)nc2c1ncn2[C@H]1C[C@H](O)[C@@H](CO)O1`, the maximum recommended daily dose (mmol/kg-bw/day) under setting [2] was 0.000315.

As to `Cc1ccc(-c2cc(C(F)(F)F)nn2-c2ccc(S(N)(=O)=O)cc2)cc1`, under “TherapeuticCategory: anti inflammatory, antiarthritic”, the maximum recommended daily dose (mmol/kg-bw/day) is 0.0175. Consider `CSc1ccc2c(c1)N(CCC1CCCCN1C)c1ccccc1S2` (stereo unspecified), for which the maximum recommended daily dose (mmol/kg-bw/day) under setting [3] was 0.0359. For `NC(=O)c1ccccc1O`, for the setting “TherapeuticCategory: analgesic”, the maximum recommended daily dose (mmol/kg-bw/day) is 0.316. For the molecule `OCCN1CCN(CCCN2c3ccccc3C=Cc3ccccc32)CC1`, the maximum recommended daily dose (mmol/kg-bw/day) (TherapeuticCategory: antidepressant, antipsychotic) was 0.0138. With `CCOC(=O)C(C)(C)Oc1ccc(Cl)cc1`, the maximum recommended daily dose (mmol/kg-bw/day) under setting [1] was 0.137. On to `Cn1cnc([N+](=O)[O-])c1Sc1ncnc2nc[nH]c12`, for which the maximum recommended daily dose (mmol/kg-bw/day) (TherapeuticCategory: immunosuppressant, antirheumatic) was 0.018.

For `CN(C)CCN(Cc1cccs1)c1ccccn1`, the maximum recommended daily dose (mmol/kg-bw/day) under setting [9] was 0.0255.

Take `CC[C@]1(O)CC[C@H]2[C@@H]3CCC4=CCCC[C@@H]4[C@H]3CC[C@@]21C`: for the setting “TherapeuticCategory: anabolic”, the maximum recommended daily dose (mmol/kg-bw/day) was 0.000231. Regarding `C#C[C@]1(O)CC[C@H]2[C@@H]3CCC4=CC(=O)CC[C@]4(C)[C@H]3CC[C@@]21C`, the maximum recommended daily dose (mmol/kg-bw/day) (TherapeuticCategory: progestogen) was 0.00534. As for `CC(=O)Nc1ccc(OC(=O)c2ccccc2OC(C)=O)cc1`, where the note is “TherapeuticCategory: analgesic, antipyretic, anti inflammatory”, the maximum recommended daily dose (mmol/kg-bw/day) was 0.425. In the case of `C[C@@]12CCCCC[C@@H](Cc3ccc(O)cc31)[C@@H]2N`, the maximum recommended daily dose (mmol/kg-bw/day) under setting [8] is 0.000681. As for `NCCCNCCSP(=O)(O)O`, the maximum recommended daily dose (mmol/kg-bw/day) (TherapeuticCategory: mucolytic) was 0.115. As to `Cc1ccc(/C(=C/CN2CCCC2)c2ccccn2)cc1`, the maximum recommended daily dose (mmol/kg-bw/day) under setting [9] is 0.0006. In the case of `CC[C@H](OC(C)=O)C(C[C@H](C)N(C)C)(c1ccccc1)c1ccccc1`, the maximum recommended daily dose (mmol/kg-bw/day) (TherapeuticCategory: treatment of narcotic addiction) was 0.0113. On to `CCc1oc2ccccc2c1C(=O)c1cc(Br)c(O)c(Br)c1`, for which, for the setting “TherapeuticCategory: uricosuric”, the maximum recommended daily dose (mmol/kg-bw/day) is 0.0118. With `CN(CCOc1ccc(CC2SC(=O)NC2=O)cc1)c1ccccn1` (stereo unspecified), the maximum recommended daily dose (mmol/kg-bw/day) under setting [5] is 0.000281. As for `CCc1cc2c(s1)N(C)C(=O)CN=C2c1ccccc1Cl`, the maximum recommended daily dose (mmol/kg-bw/day) under setting [6] is 0.00314.

With `CCn1nc(C(=O)O)c(=O)c2cc3c(cc21)OCO3`, under setting [4], the maximum recommended daily dose (mmol/kg-bw/day) is 0.0637. On to `CC1CCN(CCCC(=O)c2ccc(F)cc2)CC1`, for which the maximum recommended daily dose (mmol/kg-bw/day) (TherapeuticCategory: neuroleptic) was 0.0253.
